These results are taken from US20190000803A1, “CHONDROITIN COMPLEXES FOR TRANSCUTANEOUS ABSORPTION” (Altergon S.A., priority 2012, published 2019).

Data set [1] can be described thus: Dialysis equilibrium study of diclofenac release from diclofenac-chondroitin complexes. The data set is classed as physicochemical. Particulars: 2 KDa cut-off, 100 mL in 2 L water, 25° C.
The nature of data set [2]: Topical absorption and distribution of [3H]chondroitin gels in nude mice. The data set is classed as in vivo, Charles River nude mice. Here is the method: 60 five-month-old Charles River nude mice of both sexes were used as experimental model to evaluate the transcutaneous absorption of chondroitin. The animals were randomised into 12 groups of 5 which, as reported in the study design in table 1, were treated with 50 mg of [^3H]chondroitin gel with different MWs, prepared as described in example 1. During the study the animals were kept in individual cages, with unrestricted access to food and water.
The animals were euthanised 1, 5, 10 and 20 h after the application, as reported in the trial design in table 1. Immediately after euthanisation the gel application area was thoroughly washed until no detectable traces of radioactivity remained in the washing water, in order to discriminate between the radioactivity applied and the radioactivity absorbed by the skin. The treated skin areas, liver and blood were recovered from the euthanised animals, and the samples were weighed and frozen immediately after removal. The urine of the animals was recovered from the cages by washing.
Skin, liver and blood samples (150-200 mg) were solubilised in Soluene […] at ambient temperature. The radioactivity was measured by liquid-phase scintillation on the solubilised samples and the urine.

Data set [3] is described as follows: Absorption of diclofenac by human skin using the Franz cell. As to conditions: compared with absence of the polysaccharide or presence of chondroitin sulphate. The data set is classed as in vitro ADME.
Description: The skin was frozen to −20° C. immediately after removal, and kept at that temperature until the time of use. Before being placed in the Franz cells, the frozen skin was cleaned of subcutaneous fat, so that only the stratum corneum, the epidermis and the dermis were used, and cut to a size suitable for positioning in the Franz cell, with the stratum corneum facing upwards. Before the study began, the cell was maintained at 30° C. for 10 h with continual stirring of the receptor solution consisting of 10 mL of HBSS (Hank's Buffered Saline Solutions). The surface on which the formulation was deposited measured about 3 cm^2. Before application of the gel in the cells, the receptor solution was replaced, taking care to eliminate all air bubbles between skin and solution.
At the indicated times the receptor phase was recovered and the skin surface was washed thoroughly to remove all the unabsorbed gel. The skin was recovered, homogenised and digested for 10 h under stirring at 30° C. with collagenase (5,200 I/g of skin) in 10 mM of phosphate buffer pH 7.4. At the end of the incubation, 0.4 volumes of ethanol were added and the mixture was centrifuged at 10,000 rpm for 20 min. […] The eluate was monitored at 276 nm.
Data set [4] is described as follows: In vivo transcutaneous absorption of diclofenac gels in nude mice. The arrangement: species or system Charles River nude mice. Particulars: conclusion from tables 8-10. Here is the method:
During the study the animals were kept in individual cages, with unrestricted access to food and water.
The animals were euthanised 1, 5 and 10 h after the application, as reported in the trial design in table 7. Immediately after euthanisation the gel application area was washed thoroughly to discriminate between the radioactivity applied and the radioactivity absorbed by the skin. The treated skin areas, liver and blood were recovered from the euthanised animals, and the samples were weighed and frozen immediately after removal. The urine of the animals was recovered from the cages by washing.

Data set [5] is described as follows: Absorption of ketorolac by human skin using the Franz cell. Format: in vitro ADME. Particulars: compared with absence of the polysaccharide.
Description: 10 mg of the following gels was applied to the skin surface: a) tromethamine ketorolac salt gel (per gram of gel: 100 mg of polyethylene glycol, 1 mg of benzyl alcohol, 200 mg of tromethamine ketorolac salt and water q.s. for 1 g, dissolved at 50° C. under vigorous stirring); b) tromethamine ketorolac salt-chondroitin gel (0.535 moles of tromethamine ketorolac salt/mole of disaccharide chondroitin units; per gram of gel: 100 mg of polyethylene glycol, 1 mg of benzyl alcohol, 200 mg of chondroitin MW 62 KDa, 100 mg of tromethamine ketorolac salt and water q.s. for 1 g, dissolved at 50° C. under vigorous stirring).
The quantity of ketorolac present in the skin washing solution (unabsorbed part), in the enzymatic tissue digestate (part absorbed by the skin) and in the receptor fluid (part that crossed the skin structure) was determined quantitatively by HPLC. The tests were conducted on a Waters model 746 (USA) HPLC, equipped with a μ-bondapack C18 column (150×4.6 millimetres). A solution of acetonitrile, deionised water and orthophosphoric acid (45:54.5:0.5 in vol.), with a final pH of 3.5, was used as mobile phase, operating with a flow rate of 1 mL/min. The eluate was monitored at 280 nm. Quantitation was performed by measuring the ratios between the peak area of ketorolac and the peak area of the internal standard, consisting of a naproxen solution with a known titre.
For data set [6] the following is noted: Franz cell, human skin; cited from earlier work.

For the compound `O=C(O)Cc1ccccc1Nc1c(Cl)cccc1Cl` [Diclofenac only, 2-(2-[2,6-dichlorophenylamino]phenyl) ethanoic acid], the “% OD275 present in the dialysis medium” value in data set [1] (1 h) is listed as 85%; in data set [1] (2 h), 94%; in data set [1] (4 h), 96%; in data set [1] (8 h), 95%; in data set [1] (16 h) it was 96%.

Consider chondroitin, for which the “radioactivity in skin, % of dose applied” value in data set [2] (skin, 1 h after topical application of 50 mg gel) is recorded as “about 50 % of dose applied”. Moreover, the “radioactivity in urine, % of dose applied” value in data set [2] (urine, 20 h) is reported as “about 25 % of dose applied”. Moreover, the “absorption of diclofenac in the presence of chondroitin” value in data set [3] is recorded as “increases significantly”. The “acts as transdermal carrier of diclofenac” value in data set [4] is “acts as an efficient transdermal carrier of diclofenac”. In addition, the “absorption of ketorolac in the presence of chondroitin” value in data set [5] was “increases significantly”.

As for chondroitin sulphate, the “ability to transport diclofenac and ibuprofen in the skin” value (“ability” for short) in data set [6] was “are not”. In data set [4], the “acts as transdermal carrier of diclofenac” value is “not”.

Consider heparin, for which the “ability” value in data set [6] was “are not”.

On to hyaluronic acid, for which the “ability” value in data set [6] is “able to transport diclofenac and ibuprofen in the skin”.
